Results from ChEMBL document CHEMBL3227937, “2',3'-Bis(2-chloroethyl)aminophosphoryl-3'-amino-3'-deoxyadenosine: a cyclic nucleotide with antitumor activity” (1979).
Values after ≈ are worked out from the molar mass of the structure shown.

Legend:
[1] = Anticancer activity against mouse LE1210 cells allografted in mouse at 0.625 mg/kg, ip relative to control; assay type: functional; conditions: route intraperitoneal
KB = assay: Cytotoxicity against human KB cells; assay type: functional

Structure (SMILES) | T/C [1] [%] | EC50 (KB; Homo sapiens, KB, read-out: ED50 (the source's name)) [µg/mL] | ED50 (KB) [µg/mL]
CN(C)c1ncnc2c1ncn2[C@@H]1O[C@H](CO)[C@H]2NP(=O)(N(CCCl)CCCl)O[C@H]21 (mixture of isomers) | 101 | – | –
Nc1ncnc2c1ncn2[C@@H]1O[C@H](CO)[C@H]2NP(=O)(N(CCCl)CCCl)O[C@H]21 (single isomer, unassigned; isomer 1) | 101 | 1.1 (≈ 2.43 µM) | –
Nc1ncnc2c1ncn2[C@@H]1O[C@H](CO)[C@H]2NP(=O)(N(CCCl)CCCl)O[C@H]21 (single isomer, unassigned; isomer 2) | – | – | 0.66 (≈ 1.46 µM)
